From the CheMixHub viscosity set
Where “and” joins values, the source holds several entries; their conditions need not be identical. Equal entries are not always repeated. ± gives the uncertainty stated by the source.

Assay: xn = mol fraction of the nth substance listed

CC(=O)O + C1CCOC1
298.15 K, 101 kPa
Conditions	viscosity [mPa·s]
x2 = 0.0847	1.112 ± 0.0094
x2 = 0.1723	1.087 ± 0.0092
x2 = 0.263	1.04 ± 0.0088
x2 = 0.357	0.9739 ± 0.0082
x2 = 0.4544	0.8952 ± 0.0076
x2 = 0.5554	0.8054 ± 0.0069
x2 = 0.6602	0.7083 ± 0.0061
x2 = 0.7691	0.6103 ± 0.0053
x2 = 0.8823	0.5294 ± 0.0046

ClCCl + CCCCO
303.15 K, 101.3 kPa
Conditions	viscosity [mPa·s]
x2 = 0.036	0.4023 ± 0.011
x2 = 0.0601	0.4082 ± 0.011
x2 = 0.1127	0.4291 ± 0.011
x2 = 0.1672	0.4596 ± 0.012
x2 = 0.3142	0.5767 ± 0.015
x2 = 0.4391	0.7209 ± 0.019
x2 = 0.5585	0.9132 ± 0.024
x2 = 0.6635	1.143 ± 0.03
x2 = 0.7658	1.428 ± 0.038
x2 = 0.8429	1.684 ± 0.044
x2 = 0.9	1.89 ± 0.05
x2 = 0.9566	2.105 ± 0.056

ClCCCl + CO
viscosity [mPa·s], 101 kPa
Conditions	x2 = 0.1568	x2 = 0.2369	x2 = 0.4217	x2 = 0.5374	x2 = 0.6221	x2 = 0.6906	x2 = 0.7982	x2 = 0.8393	x2 = 0.912
303.15 K	0.6585 ± 0.018	0.6407 ± 0.017	0.6125 ± 0.017	0.6032 ± 0.016	0.5936 ± 0.016	0.5824 ± 0.016	0.5696 ± 0.016	0.5617 ± 0.016	0.5488 ± 0.016
313.15 K	0.5772 ± 0.017	0.5596 ± 0.016	0.5318 ± 0.016	0.5227 ± 0.015	0.5094 ± 0.015	0.5005 ± 0.015	0.4915 ± 0.015	0.4852 ± 0.015	0.4762 ± 0.015
323.15 K	0.5169 ± 0.016	0.499 ± 0.015	0.4709 ± 0.015	0.4587 ± 0.015	0.4506 ± 0.015	0.4422 ± 0.015	0.4323 ± 0.014	0.4255 ± 0.014	0.4199 ± 0.014

ClCCl + Cc1ccccc1C
101 kPa
Conditions	viscosity [mPa·s]
293.15 K, x1 = 0.3503	0.679 ± 0.018
293.15 K, x1 = 0.4307	0.648 ± 0.017
293.15 K, x1 = 0.4992	0.623 ± 0.016
293.15 K, x1 = 0.5657	0.594 ± 0.015
293.15 K, x1 = 0.6558	0.561 ± 0.015
293.15 K, x1 = 0.7632	0.521 ± 0.014
293.15 K, x1 = 0.8524	0.49 ± 0.013
298.15 K, x1 = 0.2305	0.677 ± 0.018
298.15 K, x1 = 0.3611	0.634 ± 0.016
298.15 K, x1 = 0.449	0.602 ± 0.016
298.15 K, x1 = 0.5343	0.572 ± 0.015
298.15 K, x1 = 0.6293	0.542 ± 0.014
298.15 K, x1 = 0.696	0.519 ± 0.014
298.15 K, x1 = 0.7684	0.494 ± 0.013
298.15 K, x1 = 0.826	0.476 ± 0.012
298.15 K, x1 = 0.8658	0.465 ± 0.012
303.15 K, x1 = 0.236	0.644 ± 0.017
303.15 K, x1 = 0.3688	0.602 ± 0.016
303.15 K, x1 = 0.4846	0.561 ± 0.015
303.15 K, x1 = 0.5645	0.531 ± 0.014
303.15 K, x1 = 0.6373	0.507 ± 0.013
303.15 K, x1 = 0.7091	0.483 ± 0.013
303.15 K, x1 = 0.7766	0.462 ± 0.012
303.15 K, x1 = 0.8368	0.444 ± 0.012
303.15 K, x1 = 0.861	0.437 ± 0.011

CCNc1ccccc1 + CCCCCCCCCCO
viscosity [mPa·s], 101 kPa
Conditions	303.15 K	308.15 K	313.15 K
x1 = 0.0817	7.725 ± 1.5	7.287 ± 1.5	6.857 ± 1.4
x1 = 0.1745	6.632 ± 1.3	6.215 ± 1.2	5.818 ± 1.2
x1 = 0.2651	5.714 ± 1.1	5.323 ± 1.1	4.959 ± 0.99
x1 = 0.3524	4.951 ± 0.99	4.585 ± 0.92	4.253 ± 0.85
x1 = 0.4321	4.345 ± 0.87	4.002 ± 0.8	3.697 ± 0.74
x1 = 0.5012	3.88 ± 0.78	3.557 ± 0.71	3.274 ± 0.66
x1 = 0.5685	3.476 ± 0.7	3.173 ± 0.63	2.909 ± 0.58
x1 = 0.6325	3.131 ± 0.63	2.845 ± 0.57	2.6 ± 0.52
x1 = 0.6958	2.825 ± 0.57	2.556 ± 0.51	2.327 ± 0.47
x1 = 0.7521	2.579 ± 0.52	2.324 ± 0.47	2.109 ± 0.42
x1 = 0.8012	2.382 ± 0.48	2.14 ± 0.43	1.937 ± 0.39
x1 = 0.8562	2.18 ± 0.44	1.952 ± 0.39	1.762 ± 0.35
x1 = 0.9021	2.027 ± 0.41	1.81 ± 0.36	1.63 ± 0.33

O=C[C@H](O)[C@@H](O)[C@@H](O)[C@H](O)CO + O
viscosity
Conditions	298.15 K	308.15 K
101 kPa, x1 = 0.0002	0.9056 ± 0.091 mPa·s and 0.9056 mPa·s	–
101 kPa, x1 = 0.001	0.9592 ± 0.096 mPa·s and 0.9592 mPa·s	–
101 kPa, x1 = 0.0018	0.9761 ± 0.098 mPa·s and 0.9761 mPa·s	–
101 kPa, x1 = 0.002	0.9675 ± 0.097 mPa·s and 0.9675 mPa·s	–
101 kPa, x1 = 0.003502	0.971 ± 0.009 mPa·s	–
101 kPa, x1 = 0.00393	0.9552 ± 0.024 mPa·s	0.814 ± 0.021 mPa·s
101 kPa, x1 = 0.00634	1.043 ± 0.026 mPa·s	0.8355 ± 0.021 mPa·s
101 kPa, x1 = 0.01867	1.505 ± 0.017 mPa·s	–
101.3 kPa, x1 = 0.02116	1.511 ± 0.009 mPa·s	–

ClCCl + CCO
303.15 K, 101.3 kPa
Conditions	viscosity [mPa·s]
x2 = 0.0625	0.395 ± 0.011
x2 = 0.1074	0.398 ± 0.011
x2 = 0.1915	0.4103 ± 0.011
x2 = 0.2935	0.4387 ± 0.012
x2 = 0.4162	0.4914 ± 0.013
x2 = 0.5331	0.5595 ± 0.015
x2 = 0.6811	0.6721 ± 0.018
x2 = 0.7823	0.767 ± 0.02
x2 = 0.8482	0.8337 ± 0.022
x2 = 0.9067	0.8949 ± 0.024
x2 = 0.9571	0.9476 ± 0.025

CCNc1ccccc1 + Oc1ccccc1
viscosity [mPa·s], 101 kPa
Conditions	298.15 K	313.15 K	323.15 K
x1 = 0.0794	8.63 ± 0.23	4.35 ± 0.12	3.14 ± 0.08
x1 = 0.1373	8.82 ± 0.23	4.53 ± 0.13	3.16 ± 0.08
x1 = 0.206	8.53 ± 0.23	4.34 ± 0.12	3.06 ± 0.08
x1 = 0.2495	8.18 ± 0.22	4.26 ± 0.12	3.13 ± 0.08
x1 = 0.3418	7.28 ± 0.19	3.96 ± 0.11	2.97 ± 0.08
x1 = 0.4372	5.98 ± 0.16	3.41 ± 0.09	2.54 ± 0.07
x1 = 0.5	5.1 ± 0.14	2.99 ± 0.08	2.15 ± 0.06
x1 = 0.5381	4.77 ± 0.13	2.78 ± 0.08	2.1 ± 0.06
x1 = 0.6445	3.68 ± 0.1	2.31 ± 0.06	1.76 ± 0.05
x1 = 0.7005	3.27 ± 0.09	2.06 ± 0.06	1.62 ± 0.04
x1 = 0.7565	2.9 ± 0.08	1.88 ± 0.05	1.54 ± 0.04
x1 = 0.8744	2.22 ± 0.06	1.55 ± 0.04	1.24 ± 0.03

CCC(C)Br (stereo not given) + CCC(C)O
viscosity [mPa·s], 101.3 kPa
Conditions	x1 = 0.0514	x1 = 0.1041	x1 = 0.2027	x1 = 0.2985	x1 = 0.4321	x1 = 0.5027	x1 = 0.5839	x1 = 0.702	x1 = 0.8019	x1 = 0.9029
298.15 K	2.434 ± 0.022	1.986 ± 0.018	1.435 ± 0.013	1.135 ± 0.01	0.8991 ± 0.0078	0.8084 ± 0.007	0.7285 ± 0.0063	0.6459 ± 0.0056	0.5996 ± 0.0052	0.5667 ± 0.0049
313.15 K	1.495 ± 0.017	1.276 ± 0.013	1.006 ± 0.0096	0.8366 ± 0.0077	0.6849 ± 0.0063	0.6292 ± 0.0057	0.5794 ± 0.0052	0.5282 ± 0.0047	0.4961 ± 0.0045	0.4774 ± 0.0043
